This assay has as its target T1, Somatostatin Receptor 2 (SSTR2) (Homo sapiens, UniProt P30874).
T1 construct: expressed in transfected cells
Briefly: Biochemical Assay for Activation of Somatostatin Receptor 2 (SSTR2), Cisbio HTRF cAMP assay. The class given is cell-based. The settings on record: average pEC50; HTRF cAMP assay in stably-transfected cell line expressing SSTR2; cells incubated with compounds for 1-2h. As to the method: Biochemical Assay for Activation of Somatostatin Receptor 2 (SSTR2)
Agonistic activation of SSTRs leads to an […] production of intracellular cAMP levels. Cisbio's homogeneous time-resolved fluorescence (HTRF) cAMP assay was used to measure cAMP concentration in an high-throughput format. Increase in intracellular cAMP concentrations was measuring using a stably-transfected cell line expressing SSTR2. Test compounds were dissolved in DMSO. Cells were incubated with compounds for 1-2h, and subsequently competitive binding of cAMP produced due to the activation of SSTR2 by the test compounds was measured using the Cisbio cAMP Gs dynamic assay system (Perkin Elmer, Bedford, MA).
The average pEC50 was determined for the test compounds.

Molecules are shown by their SMILES. Bounds are passed on as bounds.

T1 sequence (P30874 whole entry, species assumed): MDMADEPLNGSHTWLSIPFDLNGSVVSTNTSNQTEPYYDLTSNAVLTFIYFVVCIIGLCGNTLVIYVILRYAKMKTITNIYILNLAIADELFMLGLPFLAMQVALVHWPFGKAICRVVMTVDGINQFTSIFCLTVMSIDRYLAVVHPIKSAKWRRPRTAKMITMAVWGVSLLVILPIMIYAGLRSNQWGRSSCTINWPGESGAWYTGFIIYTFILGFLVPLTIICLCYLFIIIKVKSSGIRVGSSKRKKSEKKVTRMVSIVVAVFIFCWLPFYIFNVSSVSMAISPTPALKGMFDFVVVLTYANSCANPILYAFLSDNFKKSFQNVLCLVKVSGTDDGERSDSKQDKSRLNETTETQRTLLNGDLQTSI

Regarding `NC1CCN(c2c(-c3cc(F)cc(F)c3)cnc3cc(-c4cc(F)cc(F)c4)sc23)CC1` [Compound 133], the 50% effective concentration (EC50) is 1580 nM.

Regarding `COc1cc(F)cc(-c2cnc3[nH]c(-c4ccc5[nH]c(=O)[nH]c5c4)nc3c2N2CC[C@@H](N)[C@H](OC)C2)c1` [Compound 49], the EC50 is more than 10000 nM.

Consider `N#Cc1cccc(-c2ccc3ncc(-c4cc(F)cc(F)c4)c(OC4CCCC(N)C4)c3c2)c1O` (stereo not drawn) [Compound 22], for which the concentration giving a half-maximal response (EC50) is more than 10000 nM.

Regarding `N#Cc1cccc2c1OCCO[C@H]1CN(CC[C@@H]1N)c1c(-c3cc(F)cc(F)c3)cnc3ccc-2cc13` [Compound 77], the concentration giving a half-maximal response (EC50) was 6.31 nM.

For `COc1cc(F)cc(-c2cnc3c(nc(-c4cc(F)cc(C(N)=O)c4)n3C)c2N2CCC(N)CC2)c1` [Compound 33], the EC50 is 1580 nM.

In the case of `Cc1cc(C)cc(-c2cnc3c(c2N2CCC(N)CC2)C(=O)N(c2ccc(F)c(F)c2)CC3)c1` [Compound 112], the concentration giving a half-maximal response (EC50) was 25.1 nM.

On to `NC1CCN(c2c(-c3cc(F)cc(F)c3)cnc3c(C(=O)O)cc(-c4cc(F)cc(F)c4)cc23)CC1` [Compound 149], for which the EC50 is 0.398 nM.

As for `COc1cc(F)cc(-c2cnc3[nH]c(-c4cc(F)cc(C(=O)O)c4)nc3c2N2CC[C@@H](N)[C@H](OC)C2)c1` [Compound 52], the EC50 is more than 10000 nM.

On to `COc1cc(F)cc(-c2cnc3[nH]c(-c4cccc(C#N)c4O)nc3c2N2CCC(N)CC2)c1` [Compound 59], for which the EC50 is 631 nM.

With `Cc1cc(F)cc(-c2cnc3ccc4cc3c2N2CCC(CC2)NCC[C@H](N=[N+]=[N-])COc2c(C#N)cccc2-4)c1` (single isomer, unassigned) [Compound 97], the EC50 was 2.51 nM.

For the molecule `CC(N)CCN1Cc2ccc(F)cc2-c2cncc(C(=O)Nc3ccc(F)c(F)c3)c21` (stereo not drawn) [Compound 109, 5-(3-aminobutyl)-N-(3,4-difluorophenyl)-9-fluoro-6H-benzo [c][1,6]naphthyridine-4-carboxamide], the EC50 is 200 nM.

As to `N#Cc1cccc(-c2ccc3ncc(-c4cc(F)cc(F)c4)c(O[C@H]4CC[C@@H](N)C4)c3c2)c1O` [Compound 16], the EC50 is 200 nM.

Turning to `COc1cc(F)cc(-c2cnc3c(nc(-c4cccc(C#N)c4O)n3C)c2N2CCC(N)CC2)c1` [Compound 34], the EC50 was 501 nM.

`Cc1cc(F)cc(-c2cnc3ccc4cc3c2N2CCC(CC2)NCC[C@H](O)COc2c(C#N)cccc2-4)c1` (single isomer, unassigned) [Compound 103]: the EC50 was 3980 nM.

`CN1c2c(cnc3ccc(-c4cc(F)cc(F)c4)cc23)-c2cc(F)cc(F)c2C1CCN` (stereo not drawn) [Compound 157]: the EC50 is 10 nM.

`Cc1cc(F)cc(-c2cnc3ccc(-c4cccc(C#N)c4O)cc3c2N2CCC(NC(=N)N)CC2)c1` [Compound 136]: the EC50 was 20 nM.

As for `Cc1cc(F)cc(-c2cnc3ccc(-c4ccc5[nH]c(=O)[nH]c5c4)cc3c2O[C@@H]2CC[C@H](N)C2)c1` [Compound 8], the EC50 is 6.31 nM.

As to `N#Cc1cccc2c1OCCCCCNC1CCN(CC1)c1c(-c3cc(F)cc(F)c3)cnc3ccc-2cc13` [Compound 71], the EC50 is 0.158 nM.

Regarding `COCOc1c(C#N)cccc1-c1ccc2ncc(-c3cc(F)cc(F)c3)c(N3CC4(CN(C(C)=O)C4)C3)c2c1` [Compound 139], the EC50 was more than 5010 nM.

For the molecule `NC1CCN(c2c(-c3nc4cc(F)c(F)cc4[nH]3)cnc3ncc4ccc(F)cc4c23)CC1` [Compound 120], the EC50 was 6310 nM.

Take `COCOc1c(C#N)cccc1-c1ccc2ncc(-c3cc(F)cc(F)c3)c(-n3ccc([N+](=O)[O-])c3)c2c1` [Compound 143]: the EC50 was more than 10000 nM.

With `N[C@@H]1CCN(c2c(-c3cc(F)cc(F)c3)cnc3c2C(=O)N(c2ccc(F)c(F)c2)CC3)C1` [Compound 113], the EC50 was more than 10000 nM.

`Cc1cc(F)cc(-c2cnc3ccc4cc3c2N2CCC(CC2)NCCCCOc2c(C#N)cccc2-4)c1` [Compound 73]: the concentration for a half-maximal effect (EC50) was 0.0251 nM.

For `Cc1cc(F)cc(-c2cnc3ccc4cc3c2N2CCC(CC2)NCCNC(=O)Oc2ccccc2-4)c1` [Compound 87, 23-(3-fluoro-5-methylphenyl)-4-oxa-6,9-diaza-2(4,6)-quinolina-1(1,4)-piperidina-3(1,2)-benzenacyclononaphan-5-one], the EC50 is 0.251 nM.

Turning to `N#Cc1cccc2c1NCCCNC1CCN(CC1)c1c(-c3cc(F)cc(F)c3)cnc3ccc-2cc13` [Compound 93], the EC50 is 158 nM.

Turning to `CN1CCCCNC2CCN(CC2)c2c(-c3cc(F)cc(F)c3)cnc3ccc(cc23)-c2cccc(n2)C1=O` [Compound 82, 24-(3,5-difluorophenyl)-11-methyl-2,6,11,22,27-pentaazapentacyclo[16.6.2.2^2,^5.1^13,^17.0^21,^25]nonacosa-1(24),13(27),14,16,18(26),19,21(25),22-octaen-12-one], the 50% effective concentration (EC50) is 25.1 nM.

Take `NC1CCN(c2c(-c3cc(F)cc(F)c3)cnc3ccc(C4=CC=CC5(Cl)C(=O)NCCN45)cc23)CC1` (stereo not drawn) [Compound 152]: the EC50 was 7.94 nM.

As to `NCCCN1Cc2ccc(F)cc2-c2cncc(-c3nc4cc(F)c(F)cc4[nH]3)c21` [Compound 108], the concentration giving a half-maximal response (EC50) was 126 nM.

On to `NC1CCN(c2c(-c3cc(F)cc(F)c3)cnc3c(CO)cc(-c4cc(F)cc(F)c4)cc23)CC1` [Compound 160], for which the EC50 is 0.0251 nM.

With `NCCCn1c(=O)n2c3ccccc3cc2c2cncc(-c3cc(F)cc(F)c3)c21` [Compound 105, 5-(3-aminopropyl)-4-(3,5-difluorophenyl)pyrido[4′,3′:4,5]pyrimido [1,6-a]indol-6(5H)-one], the EC50 is more than 10000 nM.

In the case of `N#Cc1cccc(-c2cc3ncc(-c4cc(F)cc(F)c4)c(N4CCC(N)CC4)c3s2)c1O` [Compound 132], the EC50 was more than 10000 nM.

For the molecule `Cn1c(-c2cccc(Br)c2O)nc2c(N3CCC(N)CC3)c(-c3cc(F)cc(F)c3)cnc21` [Compound 41], the EC50 is 158 nM.

For `COCOc1c(C#N)cccc1-c1ccc2ncc(-c3cc(F)cc(F)c3)c(N3CC4(CNC4)C3)c2c1` [Compound 138], the EC50 was 6310 nM.

Turning to `COc1cc(F)cc(-c2cnc3[nH]c(-c4cccc(C#N)c4O)nc3c2N2CC[C@@H](N)[C@H](OC)C2)c1` [Compound 51], the EC50 is more than 10000 nM.

Regarding `Cc1cc(F)cc(-c2cnc3c(c2N2CCC(N)CC2)C(=O)N(c2ccc(F)c(F)c2)CC3)c1` [Compound 111], the EC50 was 15.8 nM.

Regarding `COc1c(C#N)cccc1-c1ccc2ncc(-c3cc(F)cc(F)c3)c(N3CCC(N)CC3)c2c1` [Compound 154], the EC50 is 0.316 nM.

As for `NC1CCN(c2c(-c3cc(F)cc(F)c3)cnc3ccc(C4=CC=CC5(O)C(=O)NCCN45)cc23)CC1` (stereo not drawn) [Compound 151], the EC50 was 1.58 nM.

`N#Cc1cccc(-c2cc3ncc(-c4cc(F)cc(F)c4)c(N4CCC(N)CC4)c3o2)c1O` [Compound 127, 3-(7-(4-aminopiperidin-1-yl)-6-(3,5-difluorophenyl)furo[3,2-b]pyridine-2-yl)-2-hydroxybenzonitrile]: the EC50 is 251 nM.

As for `CO[C@@H]1CN(c2c(-c3cc(F)cc(F)c3)cnc3[nH]c(-c4cccc(C#N)c4O)nc23)CC[C@H]1N` [Compound 48], the concentration for a half-maximal effect (EC50) is 501 nM.

As to `Cc1cc(F)cc(-c2cnc3ccc(-c4cccc(C#N)c4O)cc3c2N2CCC(=O)CC2)c1` [Compound 163], the EC50 is more than 10000 nM.

As to `NC(=O)c1cccc2c1OCCCNC1CCN(CC1)c1c(-c3cc(F)cc(F)c3)cnc3ccc-2cc13` [Compound 67], the EC50 was 0.794 nM.

Consider `CO[C@@H]1CN(c2c(-c3cc(F)cc(F)c3)cnc3[nH]c(-c4cc(F)cc(C(N)=O)c4)nc23)CC[C@H]1N` [Compound 47], for which the EC50 was 1000 nM.

For the molecule `CO[C@@H]1CN(c2c(-c3cc(C)cc(F)c3)cnc3[nH]c(-c4cc(F)cc(C(N)=O)c4)nc23)CC[C@H]1N` [Compound 53], the EC50 was 1000 nM.

Turning to `Fc1cc(F)cc(-c2cnc3ccc4cc3c2N2CCC(CC2)NCCCCCOc2cccc-4c2)c1` [Compound 69], the EC50 was 1.26 nM.

As to `N[C@H]1CC[C@H](Oc2c(-c3cc(F)cc(F)c3)cnc3ccc(-c4cc(F)cc(F)c4)cc23)C1` [Compound 15], the EC50 is 12.6 nM.

Consider `COc1cc(F)cc(-c2cnc3[nH]c(-c4ccc5[nH]c(=O)[nH]c5c4)nc3c2N2CCC(N)CC2)c1` [Compound 56], for which the concentration for a half-maximal effect (EC50) is 1580 nM.

Turning to `COc1cc(F)cc(-c2cnc3ccc(-c4cccc(C#N)c4O)cc3c2O[C@@H]2CC[C@H](N)C2)c1` [Compound 7], the EC50 is 20 nM.

Turning to `Cc1cc(F)cc(-c2cnc3ccc4cc3c2N2CCC(CC2)NCC(N)CCOc2c(C#N)cccc2-4)c1` (stereo not drawn) [Compound 95, 7-amino-23-(3-fluoro-5-methylphenyl)-4-oxa-9-aza-2(4,6)-quinolina-1(1,4)-piperidina-3(1.2)-benzenacyclononaphane-33-carbonitrile], the EC50 was 7.94 nM.
